Tests used:
[1] = test system: eNOS phosphorylation at T495; experiment: Western blot of pT495-eNOS in PAEC; type: cell-based, ovine; conditions: PMA 100 nM, 10, 30 and 60 minutes
Protocol: (§1) Primary cultures of ovine pulmonary arterial endothelial cells (PAEC) were isolated as described previously (L. K. Kelly, Am J Physiol Lung Cell Mol Physiol, 286(5), L984-91 (2004)). Briefly, cells were maintained in Dulbecco's modified Eagle medium (DMEM) supplemented with 10% fetal calf serum (Hyclone, Logan, UT), antibiotics/antimycotic (500 IU Penicillin, 500 μg/ml Streptomycin, 1.25 μg/ml Amphotericin B; MediaTech, Herndon, VA) at 37° C. in a humidified atmosphere with 5% CO2 and 95% air. Cells were used for experiments between passages 9-14, seeded at ˜50% confluence, and utilized when fully confluent.
Protein extracts were prepared using lysis buffer (50 mM Tris-HCl, pH 7.6, 0.5% Triton X-100, 20% glycerol) containing HALT™ protease inhibitor cocktail (Pierce Laboratories, Rockford, IL). The extracts were then subjected to centrifugation (15,000 g for 15 min at 4° C.). Supernatant fractions were assayed for protein concentration using the Bradford reagent (Bio-Rad, Richmond, CA) then used for Western blot analyses. Protein extracts (25-50 μg) were separated on Long-Life 4-20% Tris-SDS-Hepes gels and electrophoretically transferred to IMMUNO-BLOT™ PVDF membrane (Bio-Rad Laboratories, Hercules, CA) Immunoblotting was then carried out using the appropriate antibodies in Tris-base buffered saline with 0.1% Tween 20 and 5% nonfat milk. After washing, the membranes were probed with horseradish peroxidase-conjugated goat antiserum to rabbit or mouse. Reactive bands were visualized using chemiluminescence (Super Signal West Femto; Pierce, Rockford, IL) on a LI-COR Odyssey image station (Lincoln, NE). Bands were quantified using LI-COR Image Station software. Loading was normalized by reprobing the membranes with an antibody specific to β-actin.

NOS-derived superoxide = NOS-derived superoxide by EPR (eNOS uncoupling) in PAEC; type: cell-based, ovine; conditions: PMA
Protocol: as §1
Superoxide levels were estimated by electron paramagnetic resonance (EPR) assay using the spin-trap compound 1-hydroxy-3-methoxycarbonyl-2,2,5,5-tetramethylpyrrolidine HCl (CMH, Axxora) as described previously. Superoxide in PAEC was trapped by incubating PAEC with 20 μl of CMH stock solution (20 mg/ml) for 1 h, followed by trypsinization and centrifugation at 500 g. The cell pellet was suspended in 35 μl DPBS and loaded into a capillary tube which was then analyzed with a MiniScope MS200 EPR machine (Magnettech, Berlin, Germany). Pre-incubating cells or tissue with 100 μM ethylisothiourea (ETU, Sigma-Aldrich) for 30 min followed by incubation with CMH measured NOS-derived superoxide. EPR spectra were analyzed using ANALYSIS v.2.02 software (Magnettech). Differences between levels of samples incubated in the presence and absence of ETU were used to determine NOS-dependent superoxide generation.

[2] = test system: mitochondrial redistribution of eNOS; experiment: Immunofluorescent microscopy of eNOS mitochondrial redistribution in PAEC; type: cell-based, ovine; conditions: PMA
Protocol: as §1
PAEC were grown on cover glass for three days after reaching 100% confluence, and fixed with 4% paraformaldehyde (Thermo Fisher Scientific) for 30 min, permeabilized with 100% cold methanol at −20° C. for 5 min Cell then blocked with 1% BSA for 1 hour, and later incubated with first antibody overnight at 4° C. then secondary antibody at room temperature for 1 hour. Finally, cells were mounted on microscope slides using ProLong Glass Antifade Mountant, (Invitrogen, Carlsbad, CA, Cat #P36980). […] The images were analyzed with ImagePro Plus 7.0 (W. Casavan, Microscopy Today, 11(6), 48-50 (2003)) or ImageJ software to evaluate the colocalization of fluorescent.

PAEC = experiment: Mitochondrial bioenergetics (XF24 Analyzer, OCR) in PAEC; type: cell-based, ovine; conditions: PMA
Protocol: as §1
The XF24 Analyzer (Seahorse Biosciences) and XF CELL MITO STRESS™ Test Kit (#101706-100; Seahorse Biosciences) were used for the mitochondrial bioenergetic analyses. The optimum number of cells/well was determined to be 75,000/0.32 cm^2. At the end of each study, the XF24 culture microplates were incubated in a CO2-free XF prep station at 37° C. for 45 min to allow temperature and pH calibration. Subsequently, each well was sequentially injected Oligomycin (1 μM final concentration), carbonyl cyanide 4-(trifluoromethoxy) phenylhydrazone (FCCP, 1 μM final concentration), and Rotenone+antimycin A (1 μM final concentration of each) and measured the oxygen consumption rate (OCR). These agents were used to determine basal mitochondrial respiration, reserve respiratory capacity and maximal respiratory capacity measurements in pmols/min of oxygen consumed.

TRPV4 = molecular target: T1, TRPV4 (Mus musculus, UniProt Q9EPK8); conditions: mice treated with the TRPV4 antagonist; literature (Yin 2016); only protective if given preventatively; cited from earlier work
T1 construct: host or cells: mice (lung), cited studies
T1 sequence (Q9EPK8 whole entry): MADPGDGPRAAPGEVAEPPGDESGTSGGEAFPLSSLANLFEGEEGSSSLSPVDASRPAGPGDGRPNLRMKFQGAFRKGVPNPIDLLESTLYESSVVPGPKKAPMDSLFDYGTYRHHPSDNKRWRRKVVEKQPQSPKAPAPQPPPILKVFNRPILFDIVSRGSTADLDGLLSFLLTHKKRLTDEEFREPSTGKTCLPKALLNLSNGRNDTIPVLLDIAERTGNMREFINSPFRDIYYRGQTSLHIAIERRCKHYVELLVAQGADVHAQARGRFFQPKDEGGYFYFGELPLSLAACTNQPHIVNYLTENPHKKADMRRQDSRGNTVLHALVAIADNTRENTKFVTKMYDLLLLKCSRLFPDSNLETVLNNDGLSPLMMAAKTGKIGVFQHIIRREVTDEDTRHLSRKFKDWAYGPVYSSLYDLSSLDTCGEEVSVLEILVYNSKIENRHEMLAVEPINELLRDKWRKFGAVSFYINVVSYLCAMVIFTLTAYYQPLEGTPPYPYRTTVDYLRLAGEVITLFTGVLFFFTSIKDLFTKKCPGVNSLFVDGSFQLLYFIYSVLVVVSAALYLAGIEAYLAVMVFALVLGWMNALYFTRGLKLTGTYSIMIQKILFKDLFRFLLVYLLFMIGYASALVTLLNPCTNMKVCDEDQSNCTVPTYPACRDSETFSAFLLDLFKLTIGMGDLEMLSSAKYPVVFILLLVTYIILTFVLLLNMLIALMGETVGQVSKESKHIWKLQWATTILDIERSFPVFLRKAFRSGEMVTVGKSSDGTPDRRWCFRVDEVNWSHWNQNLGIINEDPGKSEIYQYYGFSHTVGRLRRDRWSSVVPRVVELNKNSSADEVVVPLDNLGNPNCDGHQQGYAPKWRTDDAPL

| Compound | pT495-eNOS levels [1] | eNOS uncoupling (NOS derived superoxide) (NOS-derived superoxide) | mitochondrial redistribution of eNOS [2] | mitochondrial bioenergetics (OCR, reserve and maximal respiratory capacities) (PAEC) | protection against acid-induced ALI (TRPV4) |
| --- | --- | --- | --- | --- | --- |
| CCCCCCCCCCCCCC(=O)O[C@@H]1[C@@H](C)[C@@]2(O)[C@@H](C=C(CO)C[C@]3(O)C(=O)C(C)=C[C@@H]23)[C@@H]2C(C)(C)[C@]12OC(C)=O [PMA, Phorbol 12-myristate 13-acetate] | increases in pT95-eNOS levels | eNOS uncoupling | induced the mitochondrial redistribution of eNOS | disruption of mitochondrial bioenergetics |  |
| O=C(NC1(c2ccccc2)CC1)c1c(CN2CCC(N3CCCCC3)CC2)c(-c2cccc(C(F)(F)F)c2)nc2cc(Br)ccc12 [GSK2193874] |  |  |  |  | protected against acid-induced ALI |

— patent publication US20240002437A1, “COMPOSITIONS AND METHODS OF TREATING INFLAMMATORY LUNG DISEASES” (priority 2020, published 2024)
